GI50 and TGI data for 15 molecules are collected here from PubChem BioAssay (NCI).

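96-well plates; 48 h exposure; 5 concentrations. Endpoints by linear interpolation between flanking doses. Not reached: highest tested concentration assigned. At the GI50, growth is halved. TGI marks complete inhibition of growth.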 A value given as a limit tells only on which side of the number the result lay.

What all share (assay): NCI tumour cell line growth inhibition, 48 h
In assay [1] the test system is SK-OV-3 ovarian.
The subject of assay [2] is T-47D breast.
The subject of assay [3] is SF-295 CNS.
For assay [4], the system named is NCI-H460 lung.
The subject of assay [5] is HS 578T breast.
In assay [6] the test system is RPMI-8226 leukemia.
In assay [7] the test system is OVCAR-4 ovarian.
Assay [8] concerns NCI/ADR-RES ovarian.
Assay [9] concerns MOLT-4 leukemia.
For assay [10], the system named is OVCAR-3 ovarian.

Take `COc1ccc(-c2c(-c3cc4c(c(OC)c3OC)OCO4)noc2N)cc1`: the GI50 in assay [1] is 0.34 µM; in assay [2], 0.568 µM; in [3] it was 0.275 µM; in assay [4] it was 0.379 µM; in assay [5], 0.365 µM; in [6], 0.503 µM. Moreover, the GI50 in assay [7] is 0.671 µM; in [8] it was 0.131 µM; in assay [9], 0.621 µM; in [10] it was 0.184 µM. Further, the TGI is 14.3 µM in assay [1]; above 100 µM in assay [2]; above 100 µM in [3]; above 45.2 µM in [4]; above 100 µM in [5]; 50.9 µM in assay [6]. In addition, the TGI in assay [7] is above 100 µM; in assay [8], 0.741 µM; in [9], above 100 µM; in [10] it was 0.812 µM.

For the molecule `CS(=O)(=O)c1nccc(-c2c(-c3cccc(OCc4ccccc4)c3)nc3sccn23)n1`, the GI50 in assay [1] was 23.3 µM; in assay [2], 11.7 µM; in assay [3] it was above 100 µM; in assay [4], above 83.5 µM; in [5] it was 12.9 µM; in assay [6], 9.24 µM. The GI50 in assay [7] was 9.97 µM; in assay [8], 20.3 µM; in assay [9], 1.64 µM; in assay [10] it was 14.4 µM. Moreover, the TGI in [1] is above 100 µM; in assay [2] it was above 100 µM; in assay [3], above 100 µM; in [4] it was above 100 µM; in assay [5] it was above 100 µM; in assay [6] it was above 32.3 µM. The TGI in [7], in assay [8], in assay [9] and in [10] was above 100 µM throughout.

On to `CN(Cc1ccccc1)c1ncnc2ccc(Br)cc12`, for which the GI50 was 14.2 µM in assay [1]; 22 µM in assay [2]; 13.5 µM in assay [3]; 10.3 µM in assay [4]; 11.5 µM in assay [5]; 3.26 µM in assay [6]. Also, the GI50 in assay [7] was 12.8 µM; in assay [8] it was 8.94 µM; in [9], 5.77 µM; in assay [10] it was 7.45 µM. Also, the TGI in assay [1] is 30.3 µM; in [2], above 100 µM; in assay [3] it was 28.1 µM; in assay [4] it was 26 µM; in [5], 27.8 µM; in assay [6], 13.1 µM. The TGI in assay [7] stood at 36.8 µM; in assay [8], 33.3 µM; in assay [9], 28.8 µM; in assay [10], 20.8 µM.

Regarding `COc1ccc(C(=O)OC2C(OC3C(O)COC(O[C@H]4C[C@H]5[C@@H]6CC=C7C[C@@H](O)CC[C@]7(C)[C@H]6CC[C@]5(C)[C@H]4[C@H](C)C(=O)CCC(C)C)C3OC(=O)C(C)C)OCC(O)C2O)cc1` (stereo not given in full), the GI50 in assay [1] is 0.0127 µM; in assay [2], 0.0358 µM; in [3], below 0.00275 µM; in [4] it was 0.0108 µM; in [5] it was 0.00343 µM; in assay [6], below 0.00275 µM. The GI50 was 0.295 µM in [7], 3.32 µM in assay [8], 0.00649 µM in assay [9] and 0.884 µM in assay [10]. Further, the TGI worked out at 1.52 µM in assay [1]; 3.08 µM in assay [2]; 0.00385 µM in assay [3]; 0.538 µM in assay [4]; 0.0441 µM in assay [5]; 0.01 µM in [6]. For the same molecule, the TGI was determined as 5.12 µM in assay [7], 7.2 µM in assay [8], 0.0192 µM in assay [9] and 5.88 µM in assay [10].

On to `Cc1ccccc1NC(=O)N/C(N)=N/c1nc(C)c(C)s1`, for which the GI50 was 0.596 µM in [1]; 0.448 µM in assay [2]; 0.164 µM in assay [3]; 0.376 µM in assay [4]; 0.488 µM in [5]; 0.39 µM in assay [6]. In addition, the GI50 in assay [7] is 48 µM; in [8], 0.089 µM; in assay [9], 0.467 µM; in assay [10], 0.17 µM. Also, the TGI in assay [1], in assay [2], in assay [3], in assay [4], in [5] and in assay [6] was above 100 µM throughout. Also, the TGI in assay [7] is above 100 µM; in assay [8], 15.8 µM; in assay [9] it was above 100 µM; in assay [10], 13.5 µM.

For the molecule `COc1ccc2c3c(ccc2c1)NC(C(=O)O)CC3` (stereo not given), the TGI in assay [1] is above 100 µM; in assay [2], 79.1 µM; in [3], above 100 µM; in assay [4], above 100 µM; in assay [5], above 100 µM; in assay [6], 54.1 µM. Also, the TGI is above 100 µM in [7], above 100 µM in assay [8], 56.9 µM in [9] and above 100 µM in [10].

With `O=C(/C=C/c1ccccc1)Nc1ncc(Cc2ccccc2)s1`, the GI50 is 0.458 µM in assay [1]; 0.413 µM in assay [2]; 0.202 µM in assay [3]; 0.289 µM in assay [4]; 0.287 µM in assay [5]; 0.309 µM in [6]. For the same molecule, the GI50 in assay [7] is 1.38 µM; in [8], 0.178 µM; in assay [9], 0.345 µM; in assay [10], 0.258 µM. Besides, the TGI in [1] was 6.24 µM; in assay [2], above 100 µM; in assay [3], 1.96 µM; in [4] it was 5.01 µM; in assay [5], 20.8 µM; in [6], above 28 µM. The TGI was 6.54 µM in assay [7], 5.5 µM in [8], above 100 µM in assay [9] and 1.44 µM in assay [10].

On to `CCN(CC)c1ccc(CNc2cc(C)nc3ccc(OC)cc23)cc1`, for which the GI50 in assay [1] is 10.3 µM; in assay [2], 1.96 µM; in assay [3], 1.78 µM; in assay [4], 1.97 µM; in [5], 2.32 µM; in assay [6] it was 1.71 µM. The GI50 in assay [7] was 5 µM; in assay [8], 3.08 µM; in assay [9], 3.16 µM; in [10] it was 3.12 µM. In addition, the TGI in assay [1] amounted to 22 µM; in assay [2], 4.61 µM; in assay [3], 3.89 µM; in assay [4], 4.33 µM; in assay [5], 6.73 µM; in assay [6], 4.2 µM. The TGI in assay [7] was determined as 16.5 µM; in assay [8], 14.3 µM; in [9], 9.69 µM; in assay [10], 12.8 µM.

On to `O=C(CC(O)c1cccnc1)CC(O)c1cccnc1` (stereo not given), for which the TGI in [1] is 32.6 µM; in assay [2], above 73.5 µM; in assay [3] it was 30.7 µM; in [4], 35.9 µM; in [5] it was above 100 µM; in assay [6], above 100 µM. For the same molecule, the TGI was 40.9 µM in assay [7], above 66.1 µM in [8], above 52.1 µM in [9] and 28.1 µM in assay [10].

For `Nc1nc(=O)c2[nH]cnc2n1O`, the TGI in [1], in assay [2], in assay [3], in [4], in [5] and in assay [6] was above 100 µM throughout. Moreover, the TGI in [7], in assay [8], in assay [9] and in assay [10] was above 100 µM throughout.

As for `COc1ccccc1CN=C1NC(=O)/C(=C/c2ccc3ncccc3c2)S1`, the GI50 in assay [1] is 6.08 µM; in assay [2], 8.13 µM; in assay [3], 5.7 µM; in [4], 6.91 µM; in assay [5], 6.61 µM; in assay [6], 7.17 µM. Moreover, the GI50 in assay [7] is 8.88 µM; in assay [8] it was 11.2 µM; in assay [9], 8.17 µM; in assay [10] it was 7.13 µM. The TGI is above 19.2 µM in [1]; 24.3 µM in [2]; above 21 µM in assay [3]; above 25 µM in [4]; above 24.1 µM in assay [5]; above 25 µM in assay [6]. For the same molecule, the TGI was above 25 µM in assay [7], above 25 µM in [8], above 19 µM in assay [9] and 24.9 µM in [10].

As for `C=C(c1ccc(OC)c(/C=C/C(=O)c2cc(OC)c(OC)c(OC)c2)c1)c1cc(OC)c(OC)c(OC)c1`, the GI50 is 3.6 µM in assay [1]; 1.38 µM in assay [2]; 2.9 µM in [3]; 1.44 µM in [4]; 1.46 µM in assay [5]; 0.453 µM in [6]. The GI50 in assay [7] was 3.7 µM; in assay [8], 0.936 µM; in assay [9], 1.61 µM; in [10], 1.53 µM. The TGI was above 100 µM in [1]; 6.12 µM in [2]; 14.9 µM in assay [3]; 3.54 µM in [4]; 50 µM in assay [5]; 3.06 µM in assay [6]. Further, the TGI in [7] was above 100 µM; in assay [8], 4.85 µM; in [9] it was 27 µM; in [10], 3.18 µM.

Take `Cc1cc(NCCCNc2ccnc3cc(Cl)ccc23)nc(Nc2ccc(C(=O)N3CCCCC3)cc2)n1`: the GI50 was 3.14 µM in [1]; 2.15 µM in assay [2]; 2.02 µM in assay [3]; 2.7 µM in [4]; 2.68 µM in assay [5]; 2.27 µM in [6]. Further, the GI50 is 2.83 µM in assay [7], 14.9 µM in assay [8], 2.86 µM in [9] and 2.36 µM in assay [10]. For the same molecule, the TGI in assay [1] came out at 8.23 µM; in assay [2], 6.2 µM; in assay [3] it was 3.89 µM; in assay [4] it was 7.63 µM; in assay [5], 6.38 µM; in [6] it was 5.66 µM. Further, the TGI in assay [7] turned out to be 12.6 µM; in assay [8], 35.9 µM; in assay [9], 13.5 µM; in assay [10] it was 5.91 µM.

Consider `Cc1ccc(C(=O)Nc2ccc(CN3CCN(C)CC3)c(C(F)(F)F)c2)cc1C#Cc1cnc(N)c2ccc(C#N)cc12`, for which the GI50 in assay [1] is 0.0981 µM; in [2], 3.57 µM; in assay [3], 8.85 µM; in assay [4], 0.557 µM; in [5], 0.161 µM; in assay [6], 1.08 µM. Further, the GI50 is 0.375 µM in assay [7], 2.03 µM in assay [8], 0.105 µM in assay [9] and 1.25 µM in assay [10]. Also, the TGI in [1] is 12.8 µM; in assay [2] it was above 50 µM; in [3] it was above 50 µM; in [4], 16.6 µM; in assay [5] it was above 23.9 µM; in assay [6], 19.4 µM. Besides, the TGI is 11.8 µM in [7], 10.1 µM in assay [8], above 12 µM in assay [9] and 19.2 µM in [10].

`Nc1c(C(=O)c2cccc(C(O)(CO)CO)c2)cnn1-c1ccc(F)cc1`: the GI50 in assay [1], in assay [2], in assay [3], in [4], in assay [5] and in assay [6] was above 25 µM throughout. The GI50 in assay [7], in assay [8], in assay [9] and in assay [10] was above 25 µM throughout. Further, the TGI in assay [1], in [2], in [3], in assay [4], in [5] and in assay [6] was above 25 µM each time. Moreover, the TGI in assay [7], in assay [8], in [9] and in [10] was above 25 µM throughout.
